Experimental data published in patent US6472385B1, “Compositions and methods to enhance cancer chemotherapy in p53 defective tumors” (priority 1999, dated 2002).

How the values were obtained:
[1] = test system: G2 checkpoint activated by DNA damage; conditions: literature; UCN-01: noncytotoxic doses, cisplatin; cited from earlier work
[2] = test system: Chinese hamster ovary cells; conditions: Chinese hamster ovary cells incubated with cisplatin; cited from earlier work
[3] = test system: human cells; conditions: cited from earlier work
[4] = test system: DNA damage-induced cell cycle arrest; assay: Cell cycle analysis: abrogation of DNA damage-induced cell cycle arrest; format: cell-based; conditions: for G2 arrest caused by the compound itself: compound alone / at concentrations capable of abrogating arrest
Procedure: Experiments of cell cycle analysis were conducted in accordance with procedures described by […] et al. Cell Growth and Differ. 1994 5:983-993; Bunch, R. T. and Eastman, A. […] T. and Eastman, A. Cell Growth and Differ. 1997 8:779-788.

[5] = test system: DNA damage-induced cell cycle arrest; assay: Cell cycle arrest abrogation in the presence of human plasma / plasma proteins; format: cell-based; conditions: human plasma / human plasma proteins added
Procedure: However, in K252a the hexose. moiety is replaced with a pentose moiety. […] It is believed that the pentose ring of this structure prevents binding of this compound to human plasma proteins.
Experiments of cell cycle analysis were conducted in accordance with procedures described by Demarcq et al. Cell Growth and Differ. 1994 5:983-993; Bunch, R. T. and Eastman, A. Clinical Cancer Research 1996 2:791-7; and Bunch, R. T. and Eastman, A. Cell Growth and Differ. 1997 8:779-788.

[6] = test system: p53 defective human breast cancer cells lines, MDA-MD-231 and T47D; assay: Selectivity of arrest abrogation for p53 defective cell lines; format: cell-based
Procedure: The breast cancer cell lines were obtained from the American Type Culture Collection (Rockville, Md.). The cells were maintained in Dulbecco's modified Eagle's Medium supplemented with 10% fetal bovine serum, penicillin (100 units/ml), streptomycin (100 μg/ml) and fungizone (0.25 μg/ml).

[7] = test system: human prostate carcinoma cells; conditions: cited from earlier work

## C[C@@](O)(/C=C/[C@H]1CC=CC(=O)O1)[C@@H](C[C@@H](O)\C=C/C=C\C=C\CO)OP(=O)(O)O [fostriecin]
[1]
  abrogation of G2 checkpoint / G2 arrest after DNA damage: abrogate the G2 checkpoint

## C=C1[C@@H](O)[C@@H]2O[C@]3(CC[C@H](/C=C/[C@@H](C)[C@@H]4CC(C)=C[C@@]5(O[C@H](C[C@@](C)(O)C(=O)O)CC[C@H]5O)O4)O3)CC[C@H]2O[C@@H]1[C@@H](O)C[C@H](C)[C@H]1O[C@@]2(CCCCO2)CC[C@H]1C [okadaic acid]
[1]
  abrogation of G2 checkpoint / G2 arrest after DNA damage: abrogate the G2 checkpoint

## COC[C@@H]([C@H](O)[C@H](O)C(=O)NCC[C@H](C)c1nc(/C=C/C[C@@H]2O[C@]3(C[C@@H](O)[C@@H]2C)O[C@H]([C@H](C[C@H](O)[C@H](C)[C@H](O)[C@H](C)/C=C(C)/C(C)=C/C=C/C(C)=C\C#N)OC)[C@H](OP(=O)(O)O)C3(C)C)co1)N(C)C [calyculin A]
[1]
  abrogation of G2 checkpoint / G2 arrest after DNA damage: abrogate the G2 checkpoint

## CN[C@@H]1C[C@H]2O[C@@](C)([C@@H]1OC)n1c3ccccc3c3c4c(c5c6ccccc6n2c5c31)C(=O)N[C@H]4O [UCN-01, 7-hydroxystaurosporine]
[1]
  abrogation of G2 checkpoint / G2 arrest after DNA damage: abrogate the G2 arrest
[2]
  abrogation of S-phase arrest: abrogates this S-phase arrest
[3]
  abrogation of S phase arrest: Abrogation of S phase arrest has also been observed

## CN[C@@H]1C[C@H]2O[C@@](C)([C@@H]1OC)n1c3ccccc3c3c4c(c5c6ccccc6n2c5c31)C(=O)NC4 [staurosporine]
[1]
  abrogation of G2 checkpoint / G2 arrest after DNA damage: abrogate the G2 checkpoint

## COC(=O)[C@@]1(O)CC2O[C@]1(C)n1c3ccccc3c3c4c(c5c6ccccc6n2c5c31)C(=O)NC4=O [ICP1]
[4]
  G2 arrest caused by the compound itself: does not cause G2 arrest
[4]; non-toxic concentrations
  abrogation of cell cycle arrest: abrogates cell cycle arrest at non-toxic concentrations
[5]
  activity (abrogation of cell cycle arrest) in the presence of human plasma: maintain its ability to abrogate cell cycle arrest
[6]
  selectivity of abrogation of cell arrest for p53 defective cell lines: selective for p53 defective cell lines

## COC(=O)[C@@]1(O)CC2O[C@]1(C)n1c3ccccc3c3c4c(c5c6ccccc6n2c5c31)C(=O)NC4 [K252a]
[4]; G2 phase
  abrogation of cell cycle arrest in the G2 phase: does not abrogate cell cycle arrest in the G2 phase
[4]; S phase
  abrogation of cell cycle arrest in the S phase: only abrogates cell cycle arrest in the S phase
[4]
  G2 arrest caused by the compound itself: causes G2 arrest
[5]
  activity (abrogation of cell cycle arrest) in the presence of human plasma: not inhibited
[7]
  inhibition of growth of human prostate carcinoma cells: inhibit the growth

## CC(=O)CCCCn1c(=O)c2c(ncn2C)n(C)c1=O [pentoxifylline]
[1]
  abrogation of G2 checkpoint / G2 arrest after DNA damage: abrogate the G2 checkpoint
